ChEMBL document CHEMBL1938230, “6-Position optimization of tricyclic 4-quinolone-based inhibitors of glycogen synthase kinase-3β: discovery of nitrile derivatives with picomolar potency” (Bioorg Med Chem Lett, 2012)

Tests used:
Format in all cases: cell-free
[1] = molecular target: T1, Serine/threonine-protein kinase Nek1 (Homo sapiens) (UniProt Q96PY6); assay: Inhibition of human NEK1 in HL-60 cells lysate assessed as reduction of labeling of acyl-phosphate ATP probe at 100 nM
T1 sequence (whole entry): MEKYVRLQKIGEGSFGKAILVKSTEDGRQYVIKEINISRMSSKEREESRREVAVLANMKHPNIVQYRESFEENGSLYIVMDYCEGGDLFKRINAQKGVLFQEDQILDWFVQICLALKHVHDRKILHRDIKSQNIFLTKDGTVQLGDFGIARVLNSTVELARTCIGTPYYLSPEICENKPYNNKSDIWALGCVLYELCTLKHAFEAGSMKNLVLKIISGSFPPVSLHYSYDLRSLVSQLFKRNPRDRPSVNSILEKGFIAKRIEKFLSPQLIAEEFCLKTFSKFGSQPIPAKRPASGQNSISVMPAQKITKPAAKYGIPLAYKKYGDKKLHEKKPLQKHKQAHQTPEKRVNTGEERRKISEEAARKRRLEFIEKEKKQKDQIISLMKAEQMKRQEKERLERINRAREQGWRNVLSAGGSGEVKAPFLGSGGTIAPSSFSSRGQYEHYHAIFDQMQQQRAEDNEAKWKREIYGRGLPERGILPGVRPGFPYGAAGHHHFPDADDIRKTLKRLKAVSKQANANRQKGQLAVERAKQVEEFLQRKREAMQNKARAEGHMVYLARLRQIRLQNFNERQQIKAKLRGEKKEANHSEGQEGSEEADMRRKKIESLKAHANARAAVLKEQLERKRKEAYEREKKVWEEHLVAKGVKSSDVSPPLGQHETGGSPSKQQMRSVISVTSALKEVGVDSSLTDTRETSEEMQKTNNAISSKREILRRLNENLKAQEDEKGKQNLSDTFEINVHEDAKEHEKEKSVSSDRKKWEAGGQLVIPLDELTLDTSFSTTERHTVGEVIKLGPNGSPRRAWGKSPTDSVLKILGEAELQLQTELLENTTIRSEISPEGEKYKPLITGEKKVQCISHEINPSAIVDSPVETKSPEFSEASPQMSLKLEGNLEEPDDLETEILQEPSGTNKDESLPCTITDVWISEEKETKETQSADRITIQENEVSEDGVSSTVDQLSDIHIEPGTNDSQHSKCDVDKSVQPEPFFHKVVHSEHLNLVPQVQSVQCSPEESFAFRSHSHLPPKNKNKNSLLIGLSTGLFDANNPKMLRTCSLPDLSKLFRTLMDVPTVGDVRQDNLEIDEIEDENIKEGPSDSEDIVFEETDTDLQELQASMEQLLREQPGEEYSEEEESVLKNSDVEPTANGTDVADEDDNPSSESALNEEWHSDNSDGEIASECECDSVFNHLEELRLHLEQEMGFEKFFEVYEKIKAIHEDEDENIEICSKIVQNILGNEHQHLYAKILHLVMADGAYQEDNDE

[2] = molecular target: Serine/threonine-protein kinase 10 (Homo sapiens) (UniProt O94804); assay: Inhibition of human LOK in HL-60 cells lysate assessed as reduction of labeling of acyl-phosphate ATP probe at 100 nM
[3] = molecular target: Serine/threonine-protein kinase 24 (Homo sapiens) (UniProt Q9Y6E0); assay: Inhibition of human MST3 in HL-60 cells lysate assessed as reduction of labeling of acyl-phosphate ATP probe at 100 nM
[4] = molecular target: Serine/threonine-protein kinase PAK 2 (Homo sapiens) (UniProt Q13177); assay: Inhibition of human PAK2 in HL-60 cells lysate assessed as reduction of labeling of acyl-phosphate ATP probe at 100 nM
[5] = molecular target: T2, Serine/threonine-protein kinase TAO2 (Homo sapiens) (UniProt Q9UL54); assay: Inhibition of human TAO2 in HL-60 cells lysate assessed as reduction of labeling of acyl-phosphate ATP probe at 100 nM
T2 sequence (whole entry): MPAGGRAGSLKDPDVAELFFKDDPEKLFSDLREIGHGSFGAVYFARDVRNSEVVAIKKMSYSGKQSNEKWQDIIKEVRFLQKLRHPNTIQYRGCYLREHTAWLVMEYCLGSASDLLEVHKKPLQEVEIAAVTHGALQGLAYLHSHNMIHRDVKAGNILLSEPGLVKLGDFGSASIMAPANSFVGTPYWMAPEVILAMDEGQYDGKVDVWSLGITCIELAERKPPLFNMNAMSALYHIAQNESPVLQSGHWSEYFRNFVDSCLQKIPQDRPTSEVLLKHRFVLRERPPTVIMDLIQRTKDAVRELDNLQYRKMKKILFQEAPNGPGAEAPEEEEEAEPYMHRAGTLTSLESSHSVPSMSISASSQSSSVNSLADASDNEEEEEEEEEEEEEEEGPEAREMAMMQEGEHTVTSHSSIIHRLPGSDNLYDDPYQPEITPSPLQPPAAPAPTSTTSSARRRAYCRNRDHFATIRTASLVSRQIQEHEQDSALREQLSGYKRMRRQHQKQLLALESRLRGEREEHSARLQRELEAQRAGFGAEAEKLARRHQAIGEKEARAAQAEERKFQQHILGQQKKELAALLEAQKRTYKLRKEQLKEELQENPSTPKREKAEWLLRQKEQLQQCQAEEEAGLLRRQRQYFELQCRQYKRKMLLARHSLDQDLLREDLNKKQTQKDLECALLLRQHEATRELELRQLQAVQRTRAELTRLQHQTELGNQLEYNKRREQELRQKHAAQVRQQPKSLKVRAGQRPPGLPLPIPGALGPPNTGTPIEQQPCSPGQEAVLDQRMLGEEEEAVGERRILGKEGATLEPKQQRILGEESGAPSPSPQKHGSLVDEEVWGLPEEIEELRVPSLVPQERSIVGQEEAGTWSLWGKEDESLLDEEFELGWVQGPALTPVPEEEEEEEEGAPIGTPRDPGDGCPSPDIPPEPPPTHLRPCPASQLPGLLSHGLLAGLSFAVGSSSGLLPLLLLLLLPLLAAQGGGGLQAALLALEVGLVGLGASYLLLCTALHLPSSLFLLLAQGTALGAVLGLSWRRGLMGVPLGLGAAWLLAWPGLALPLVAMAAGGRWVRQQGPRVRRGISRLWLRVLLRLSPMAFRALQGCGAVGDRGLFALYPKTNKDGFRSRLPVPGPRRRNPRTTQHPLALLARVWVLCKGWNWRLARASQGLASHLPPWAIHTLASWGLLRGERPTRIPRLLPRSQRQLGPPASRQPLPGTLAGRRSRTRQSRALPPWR

[6] = molecular target: Interleukin-1 receptor-associated kinase 1 (Homo sapiens) (UniProt P51617); assay: Inhibition of human IRAK1 in HL-60 cells lysate assessed as reduction of labeling of acyl-phosphate ATP probe at 100 nM
[7] = molecular target: Leucine-rich repeat serine/threonine-protein kinase 2 (Homo sapiens) (UniProt Q5S007); assay: Inhibition of human LRRK2 in HL-60 cells lysate assessed as reduction of labeling of acyl-phosphate ATP probe at 100 nM

Chain of Serine/threonine-protein kinase PAK 2 (Homo sapiens) (Q13177 whole entry): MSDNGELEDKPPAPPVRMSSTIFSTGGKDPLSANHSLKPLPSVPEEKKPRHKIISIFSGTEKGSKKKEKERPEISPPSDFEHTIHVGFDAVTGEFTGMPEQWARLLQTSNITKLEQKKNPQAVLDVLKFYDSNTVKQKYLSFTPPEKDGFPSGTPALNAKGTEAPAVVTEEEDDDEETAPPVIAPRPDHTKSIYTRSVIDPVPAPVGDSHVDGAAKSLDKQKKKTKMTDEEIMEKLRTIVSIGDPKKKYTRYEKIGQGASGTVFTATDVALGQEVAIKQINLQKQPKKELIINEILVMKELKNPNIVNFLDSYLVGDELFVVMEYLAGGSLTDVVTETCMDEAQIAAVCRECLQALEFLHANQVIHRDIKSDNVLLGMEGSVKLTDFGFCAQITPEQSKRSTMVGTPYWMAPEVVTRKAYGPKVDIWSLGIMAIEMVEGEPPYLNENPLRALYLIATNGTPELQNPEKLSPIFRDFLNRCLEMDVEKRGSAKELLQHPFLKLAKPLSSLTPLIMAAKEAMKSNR
Chain of Serine/threonine-protein kinase 24 (Homo sapiens) (Q9Y6E0 whole entry, looked up): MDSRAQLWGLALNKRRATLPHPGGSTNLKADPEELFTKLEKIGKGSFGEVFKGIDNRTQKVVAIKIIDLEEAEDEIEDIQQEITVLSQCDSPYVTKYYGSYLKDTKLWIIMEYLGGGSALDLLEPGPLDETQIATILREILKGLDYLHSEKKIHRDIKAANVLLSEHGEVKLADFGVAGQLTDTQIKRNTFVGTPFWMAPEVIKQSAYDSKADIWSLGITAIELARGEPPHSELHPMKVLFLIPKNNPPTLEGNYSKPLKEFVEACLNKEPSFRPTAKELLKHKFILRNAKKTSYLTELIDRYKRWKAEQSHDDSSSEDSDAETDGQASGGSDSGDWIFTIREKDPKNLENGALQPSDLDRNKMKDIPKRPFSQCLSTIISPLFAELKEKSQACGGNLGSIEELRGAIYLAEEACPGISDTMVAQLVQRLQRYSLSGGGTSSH
Chain of Interleukin-1 receptor-associated kinase 1 (Homo sapiens) (P51617 whole entry, looked up): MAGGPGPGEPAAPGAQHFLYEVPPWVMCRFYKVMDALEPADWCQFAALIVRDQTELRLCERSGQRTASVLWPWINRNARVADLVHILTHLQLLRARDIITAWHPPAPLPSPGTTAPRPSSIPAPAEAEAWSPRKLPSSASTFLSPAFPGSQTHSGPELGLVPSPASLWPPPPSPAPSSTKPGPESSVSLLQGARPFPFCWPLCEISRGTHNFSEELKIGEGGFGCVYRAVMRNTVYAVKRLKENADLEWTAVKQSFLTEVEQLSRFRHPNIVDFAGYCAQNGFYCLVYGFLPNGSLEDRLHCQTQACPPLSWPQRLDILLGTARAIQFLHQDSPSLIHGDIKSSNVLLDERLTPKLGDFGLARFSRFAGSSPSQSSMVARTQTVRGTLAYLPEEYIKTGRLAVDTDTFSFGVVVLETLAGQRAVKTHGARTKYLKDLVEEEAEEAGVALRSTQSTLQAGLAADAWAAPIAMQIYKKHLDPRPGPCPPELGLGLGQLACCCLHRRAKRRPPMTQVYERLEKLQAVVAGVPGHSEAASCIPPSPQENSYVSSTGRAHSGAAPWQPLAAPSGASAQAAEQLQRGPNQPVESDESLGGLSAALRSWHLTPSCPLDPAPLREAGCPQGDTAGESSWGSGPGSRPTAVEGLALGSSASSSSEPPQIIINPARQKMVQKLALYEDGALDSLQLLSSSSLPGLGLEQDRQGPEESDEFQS
Chain of Serine/threonine-protein kinase 10 (Homo sapiens) (O94804 whole entry, looked up): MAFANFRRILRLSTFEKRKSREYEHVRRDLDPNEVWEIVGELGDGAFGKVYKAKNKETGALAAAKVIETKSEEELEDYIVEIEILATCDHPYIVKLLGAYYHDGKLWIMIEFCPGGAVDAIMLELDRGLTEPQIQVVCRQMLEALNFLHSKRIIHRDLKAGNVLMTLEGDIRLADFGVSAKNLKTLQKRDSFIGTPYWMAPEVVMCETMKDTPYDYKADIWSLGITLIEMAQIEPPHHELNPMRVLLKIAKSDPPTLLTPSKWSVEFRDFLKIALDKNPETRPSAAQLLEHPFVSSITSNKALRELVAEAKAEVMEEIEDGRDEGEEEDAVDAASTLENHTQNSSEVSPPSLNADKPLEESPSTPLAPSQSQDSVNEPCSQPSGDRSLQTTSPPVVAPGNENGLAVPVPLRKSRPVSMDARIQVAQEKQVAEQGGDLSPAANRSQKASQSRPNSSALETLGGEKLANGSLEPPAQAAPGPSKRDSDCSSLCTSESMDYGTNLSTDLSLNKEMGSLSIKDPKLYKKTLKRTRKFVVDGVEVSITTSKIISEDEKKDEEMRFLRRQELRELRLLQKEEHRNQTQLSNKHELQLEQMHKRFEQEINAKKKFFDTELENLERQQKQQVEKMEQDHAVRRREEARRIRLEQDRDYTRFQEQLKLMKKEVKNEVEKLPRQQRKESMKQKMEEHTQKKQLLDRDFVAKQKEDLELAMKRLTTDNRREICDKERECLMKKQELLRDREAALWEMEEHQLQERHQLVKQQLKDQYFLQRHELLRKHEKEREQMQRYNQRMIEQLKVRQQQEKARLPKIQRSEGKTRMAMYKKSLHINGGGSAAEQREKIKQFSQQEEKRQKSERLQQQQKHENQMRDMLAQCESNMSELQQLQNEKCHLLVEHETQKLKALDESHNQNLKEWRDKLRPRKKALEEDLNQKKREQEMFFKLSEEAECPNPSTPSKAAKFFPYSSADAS

inhibition [1] | inhibition [2] | inhibition [3] | inhibition [4] | inhibition [5] | inhibition [6] | inhibition [7] | SMILES
< 35% | < 35% | < 35% | < 35% | < 35% | < 35% | < 35% | C[C@H]1COc2c(NCCCc3ccccn3)c(F)c(N)c3c(=O)c(C#N)cn1c23
< 35% | < 35% | < 35% | < 35% | < 35% | < 35% | < 35% | C[C@H]1COc2c(NCCCn3cccn3)c(F)c(N)c3c(=O)c(C(=O)O)cn1c23
< 35% | < 35% | < 35% | < 35% | < 35% | < 35% | < 35% | C[C@H]1COc2c(NCCCn3cccn3)c(F)c(N)c3c(=O)c(C#N)cn1c23
< 35% | < 35% | < 35% | < 35% | < 35% | < 35% | < 35% | C[C@H]1COc2c(NCCCc3ccccn3)c(F)c(N)c3c(=O)c(C(=O)O)cn1c23
